Test results published in patent US20050130989A1, “N-arylheteroaromatic products compositions containing them and use thereof” (Aventis Pharma S. A., priority 2003, published 2005).

Tests used:
HCT116 cells = experiment: Inhibition of proliferation of the human colon tumor line HCT116 ([14C]-thymidine incorporation); type: cell-based; details: Homo sapiens, HCT-116, 48 h, 48 hours at 37° C., read-out: Inhibition of HCT116 proliferation IC 50 (μm)
Outline: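 HCT116 cells (5000/well) in DMEM with 10% fetal calf serum incubated 48 h at 37° C with [14C]-thymidine (0.1 μCi/well) and compound up to 10 μm (DMSO ≤0.5%). Incorporated radioactivity counted; IC50 is concentration cutting radioactivity by 50% versus untreated control.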

[1] = test system: HDMEC cells (Human Dermal Microvascular Endothelial Cells); experiment: Detachment of endothelial cells (test for determining the inhibition of vascularization); type: cell-based; details: two hours of treatment, calcein labeling, relative to untreated control
Text: A test for determining the detachment of the endothelial cells was developed in order to select the products with regard to their “in vitro” activity. This test for determining the detachment of endothelial cells is characterized in that the endothelial cells, inoculated into plates whose bottom is covered with a binder preferably chosen from gelatin, fibronectin and vitronectin, after culturing, are supplemented with a medium containing the test compound, and the cells are then labeled with a fluorescent substance, the, cells which have become detached are removed by washing and the fluorescence of the remaining cells is counted in a fluorimeter.
This test consists in measuring the detachment of endothelial cells cultured on substrata based on a binder preferably chosen from fibronectin, vitronectin and gelatin. […] The fluorescence of the remaining cells is counted in a fluorimeter. […]
The evaluation of the detachment of the endothelial cells in vitro is determined in the following manner. […] The fluorescence of the cells that remain attached to the substratum of the well is counted using a fluorimeter, Spectrafluor Plus (Tecan excitation 485 nm, and emission 535 nm). The data are the mean of six different samples and are expressed as the percentage of the control (untreated cells). […]

tubulin = target: T1, tubulin (Sus scrofa, UniProt P02550+P02554); experiment: Evaluation of the inhibition of tubulin polymerization (turbidimetry); type: biochemical, pig; details: tubulin 10 μm (1 mg/ml), 37° C., turbidity at 350 nm; concentration that inhibits the rate of polymerization by 50%; read-out: Inhibition of tubulin polymerization IC 50 (μm)
T1 construct: Tubulin is purified from pig brain according to published methods; from tissue; host or cells: pig brain
T1 sequence (P02550 whole entry): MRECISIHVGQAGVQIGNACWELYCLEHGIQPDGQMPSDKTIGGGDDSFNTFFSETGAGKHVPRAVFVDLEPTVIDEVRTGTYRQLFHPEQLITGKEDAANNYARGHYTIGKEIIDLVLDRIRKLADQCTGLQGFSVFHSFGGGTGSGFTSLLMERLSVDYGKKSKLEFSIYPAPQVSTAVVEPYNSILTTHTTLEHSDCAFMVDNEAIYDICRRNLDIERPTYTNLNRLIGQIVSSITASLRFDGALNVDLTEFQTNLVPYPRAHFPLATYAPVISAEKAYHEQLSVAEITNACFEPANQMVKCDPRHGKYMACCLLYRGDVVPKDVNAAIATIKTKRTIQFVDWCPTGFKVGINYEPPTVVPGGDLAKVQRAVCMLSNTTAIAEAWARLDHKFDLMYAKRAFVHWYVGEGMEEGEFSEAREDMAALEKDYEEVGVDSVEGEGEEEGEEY
T1 sequence (P02554 whole entry): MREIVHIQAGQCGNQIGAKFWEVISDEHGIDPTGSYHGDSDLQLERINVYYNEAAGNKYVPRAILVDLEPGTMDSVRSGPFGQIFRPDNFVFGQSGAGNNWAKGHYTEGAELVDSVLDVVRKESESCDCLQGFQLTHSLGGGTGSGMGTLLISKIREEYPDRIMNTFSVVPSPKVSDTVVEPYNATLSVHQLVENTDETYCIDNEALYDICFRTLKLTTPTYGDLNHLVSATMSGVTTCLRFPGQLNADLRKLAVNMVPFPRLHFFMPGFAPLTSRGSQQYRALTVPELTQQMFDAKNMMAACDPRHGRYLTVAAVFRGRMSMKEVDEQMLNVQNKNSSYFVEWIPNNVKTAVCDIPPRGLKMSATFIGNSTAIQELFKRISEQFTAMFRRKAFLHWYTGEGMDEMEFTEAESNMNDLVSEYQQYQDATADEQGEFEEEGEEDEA
Outline: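 Pig brain tubulin (>95% pure), 10 μm in MES pH 6.8/30% glycerol buffer plus 1 mM GTP and 6 mM MgCl2, with compound at 0.5–10 μm added before polymerization. Polymerization triggered by shift from 6° C to 37° C, followed by turbidity at 350 nm; IC50 is 50% inhibition of polymerization rate.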

Compound	IC50 (HCT116 cells) [nM]	Percentage detachment of HDMEC at 1 μm [1] [%]	IC50 (tubulin) [nM]
Cc1cc(C(=O)N2CCN(c3ccc(C)c(C)c3)CC2)n(-c2ccccc2)n1 [Example 2, [4-(3,4-Dimethylphenyl)piperazin-1-yl](5-methyl-2-phenyl-2H-pyrazol-3-yl)methanone]	160	16	600
Cc1cc(C(=O)N2CCN(c3cccc(Cl)c3)CC2)n(-c2ccccc2)n1 [Example 1, [4-(3-Chlorophenyl)piperazin-1-yl](5-methyl-2-phenyl-2H-pyrazol-3-yl)methanone]	2	22	600
